In patent US11345702B1 (Myoforte Therapeutics, Inc., priority 2020, dated 2022):
In brackets after ≈: the same amount, converted by molar mass. Read-outs that look alike come from different tables or passages of the source.

Columns and labels:
Solubility at pH 7.4 = assay type: physicochemical
15-PGDH/HPGD = 15-PGDH/HPGD (Homo sapiens (Human), UniProt P15428); assay: hPGDH inhibitor screening biochemical assay
Outline: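 Recombinant human 15-PGDH (10 nM) pre-incubated with compounds 10 min at 37 °C, then 15 μM PGE2 and 0.25 mM NAD+ added for 10 min at room temperature in 50 mM Tris-HCl pH 7.5, 0.01% Tween 20. NADH fluorescence read at ex/em 340/485 nm. IC50 from 10-point curves, four-parameter fit versus 1% DMSO.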

[1] = Liver microsome stability assay (MLM); assay type: in vitro ADME; details: mouse liver microsomes
Outline: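 Mouse, rat or human liver microsomes (mixture at 1.428 mg/mL) in potassium phosphate buffer, 37 °C, incubated with compound after NADPH addition; minus-NADPH controls included. Parent loss by LC-MS/MS (MRM) with internal standard; value is % remaining at 45 min with NADPH.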

[2] = Liver microsome stability assay (HLM); assay type: in vitro ADME; details: human liver microsomes
Procedure: (§1) A microsomal mixture (microsomes and Kphos buffer) was prepared at a concentration of 1.428 mg/mL in 2 mL tubes. To this microsomal mixture 1.6 μL (1 mM) of test compound and positive control were spiked; from this mixture, 70 μL was transferred to 96 well plate and pre-incubated at 37° C. for 5 min. After pre-incubation, the zero minute time point reaction was stopped using 100 μL of ice-cold acetonitrile containing internal standard and […] (3.33 mM in Kphos buffer) was added. The 45 minute time point reaction was initiated by addition of 30 μL of NADPH (3.33 mM in Kphos buffer) and incubated at 37° C. for 15 and 45 min. Reactions without NADPH and buffer controls (minus NADPH) at 0, 15, and 45 minutes were also incubated to rule out non-NADPH metabolism or chemical instability in the incubation buffer. Incubation reactions were stopped with 100 μL of ice-cold acetonitrile containing internal standard. The plates were centrifuged at 4000 RPM for 15 min and 100 μL aliquots were submitted for analysis by LC-MS/MS. (Verapamil in human liver microsomes (HLM) and rat liver microsomes (RLM) was used as positive controls. Imipramine in mouse liver microsomes (MLM) was used as a positive control.) Samples were monitored for parent compound disappearance in MRM mode (multiple reaction monitoring) using LC-MS/MS. The peak area ratios of analyte versus internal standard were used to calculate the % remaining at the end of 45 minutes in the presence of NADPH.

[3] = Liver microsome stability assay (RLM); assay type: in vitro ADME; details: rat liver microsomes
Procedure: as §1

[4] = aqueous buffer, pH 7.4, 6-5 ring core, read-out: Solubility at pH 7.4
[5] = aqueous buffer, pH 7.4, phenyl core, read-out: Solubility at pH 7.4
[6] = pH 7.4, aqueous buffer, read-out: Solubility: Solubility at pH 7.4

Sequence of 15-PGDH/HPGD (P15428 whole entry): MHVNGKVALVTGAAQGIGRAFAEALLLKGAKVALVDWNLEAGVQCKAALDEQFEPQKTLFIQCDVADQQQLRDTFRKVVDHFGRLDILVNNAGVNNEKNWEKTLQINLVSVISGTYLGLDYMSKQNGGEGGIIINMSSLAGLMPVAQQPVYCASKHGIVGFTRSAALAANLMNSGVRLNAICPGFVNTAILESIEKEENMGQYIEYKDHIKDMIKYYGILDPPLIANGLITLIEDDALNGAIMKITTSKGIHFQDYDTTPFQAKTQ

O=C(c1ccc2c(c1)ncn2-c1cccc(Cl)c1)N1CC2CCCC2C1 (centres unmarked) [drawing 215]
solubility (Solubility at pH 7.4; [4]): 33 µM (≈ 12.1 µg/mL)

O=C(c1cnc2c(ccn2-c2cccc(Cl)c2)c1)N1CCCCC1 [drawing 216]
IC50 (15-PGDH/HPGD; PGDH inhibitors with a 6-5 ring core, read-out: hPGDH: IC50): 1.5 nM | solubility (Solubility at pH 7.4; [4]): 21 µM (≈ 7.14 µg/mL)

COc1ccccc1C(=O)N(C)c1ccc(C(=O)N2CCCCC2)cc1 [drawing 229]
solubility (Solubility at pH 7.4; [5]): 160 µM (≈ 56.4 µg/mL)

COc1ccccc1NC(=O)c1ccc(C(=O)N2CCCCC2)cc1 [drawing 232]
solubility (Solubility at pH 7.4; [5]): 88 µM (≈ 29.8 µg/mL)

O=C(c1cnc2c(c1)ncn2-c1cccc(Cl)c1)N1CCCCC1 [drawing 219]
solubility (Solubility at pH 7.4; [4]): 150 µM (≈ 51.1 µg/mL)

O=C(O)c1ccc(-n2ccc3cc(C(=O)N4CCC(F)(F)CC4)cnc32)cc1 [MF-DH-424, 4-(5-(4,4-difluoropiperidine-1-carbonyl)-1H-pyrrolo[2,3-b]pyridin-1-yl)benzoic acid]
IC50 (15-PGDH/HPGD; read-out: hPGDH: Average IC50): < 100 nM | MLM + NADPH (% remaining at 45 min) [1]: 96% | solubility (Solubility at pH 7.4; [6]): 156 µM (≈ 60.1 µg/mL)

Cc1cncc(-n2cc(Cl)c3cc(C(=O)N4CCC(F)CC4)cnc32)n1 [MF-DH-166, (3-chloro-1-(6-methylpyrazin-2-yl)-1H-pyrrolo[2,3-b]pyridin-5-yl)(4-fluoropiperidin-1-yl)methanone]
IC50 (15-PGDH/HPGD; read-out: hPGDH: Average IC50): < 100 nM | HLM + NADPH (% remaining at 45 min) [2]: 47% | RLM + NADPH (% remaining at 45 min) [3]: 33%

O=C(c1ccc2c(c1)ncn2-c1cccc(Cl)c1)N1CCCCC1 [drawing 211]
solubility (Solubility at pH 7.4; [4]): 120 µM (≈ 40.8 µg/mL)

O=C(c1ccc2c(c1)ncn2-c1cccc(Cl)c1)N1CC2(CCC2)C1 [drawing 212]
solubility (Solubility at pH 7.4; [4]): 16 µM (≈ 5.63 µg/mL)

O=C(c1ccc(COc2ccccc2Br)cc1)N1CCCCC1 [drawing 233]
solubility (Solubility at pH 7.4; [5]): 6.3 µM (≈ 2.36 µg/mL)

O=C(c1cnc2c(ccn2-c2cncc(-c3nnn[nH]3)c2)c1)N1CCC(F)(F)CC1 [MF-DH-453, (1-(5-(1H-tetrazol-5-yl)pyridin-3-yl)-1H-pyrrolo[2,3-b]pyridin-5-yl)(4,4-difluoropiperidin-1-yl)methanone]
IC50 (15-PGDH/HPGD; read-out: hPGDH: Average IC50): < 100 nM | MLM + NADPH (% remaining at 45 min) [1]: 116% | solubility (Solubility at pH 7.4; [6]): > 100 µM

COc1ccc(-n2cnc3cc(C(=O)N4CCCCC4)ccc32)cc1 [drawing 223]
solubility (Solubility at pH 7.4; [4]): 150 µM (≈ 50.3 µg/mL)

O=C(c1ccc2c(cnn2-c2cncc(Cl)c2)c1)N1CCCCC1 [MF-DH-292]
IC50 (15-PGDH/HPGD; read-out: hPGDH: Average IC50): < 100 nM | solubility (Solubility at pH 7.4; [6]): 69 µM (≈ 23.5 µg/mL) | RLM + NADPH (% remaining at 45 min) [3]: 27%

COc1ccc(-n2cnc3cc(C(=O)N4CCCCC4)cnc32)cc1 [drawing 193]
solubility (Solubility at pH 7.4; [4]): 160 µM (≈ 53.8 µg/mL)

CC(C)NC(=O)c1ccc(-n2ccc3cc(C(=O)N4CCC(F)(F)CC4)cnc32)cc1 [MF-DH-404]
IC50 (15-PGDH/HPGD; read-out: hPGDH: Average IC50): < 100 nM | MLM + NADPH (% remaining at 45 min) [1]: 101% | solubility (Solubility at pH 7.4; [6]): < 5 µM

O=C(c1ccc2c(c1)nnn2-c1cccc(Cl)c1)N1CCCCC1 [drawing 221]
solubility (Solubility at pH 7.4; [4]): 68 µM (≈ 23.2 µg/mL)

O=C(c1cnc2c(c1)c(Cl)cn2-c1cnccn1)N1CCC(F)CC1 [MF-DH-124]
IC50 (15-PGDH/HPGD; read-out: hPGDH: Average IC50): < 100 nM | HLM + NADPH (% remaining at 45 min) [2]: 48% | RLM + NADPH (% remaining at 45 min) [3]: 34%

O=C(c1cnc2c(ccn2-c2ccc3c(c2)OCO3)c1)N1CCC(F)CC1 [MF-DH-175]
IC50 (15-PGDH/HPGD; read-out: hPGDH: Average IC50): < 100 nM | HLM + NADPH (% remaining at 45 min) [2]: 117% | RLM + NADPH (% remaining at 45 min) [3]: 45%

COc1ccc(Cn2ncc3cc(-n4ccc5cc(C(=O)N6CCCCC6)cnc54)ccc32)cc1 [MF-DH-337]
IC50 (15-PGDH/HPGD; read-out: hPGDH: Average IC50): < 100 nM | solubility (Solubility at pH 7.4; [6]): < 5 µM | RLM + NADPH (% remaining at 45 min) [3]: 1%

O=C(Nc1cncc(-n2ccc3cc(C(=O)N4CCC(F)(F)CC4)cnc32)c1)c1ccno1 [MF-DH-458]
IC50 (15-PGDH/HPGD; read-out: hPGDH: Average IC50): < 100 nM | MLM + NADPH (% remaining at 45 min) [1]: 68% | solubility (Solubility at pH 7.4; [6]): 62 µM (≈ 28.1 µg/mL)

O=C(c1ccc2c(ccn2-c2cccc(Cl)c2)c1)N1CCCCC1 [drawing 225]
solubility (Solubility at pH 7.4; [4]): < 5 µM

C[C@@H]1C[C@H](C)CN(C(=O)c2cnc3c(ccn3-c3ccc(C(N)=O)cc3)c2)C1 [MF-DH-395, 4-(5-((3R,5S)-3,5-dimethylpiperidine-1-carbonyl)-1H-pyrrolo[2,3-b]pyridin-1-yl)benzamide]
IC50 (15-PGDH/HPGD; read-out: hPGDH: Average IC50): < 100 nM | MLM + NADPH (% remaining at 45 min) [1]: 8% | solubility (Solubility at pH 7.4; [6]): 80 µM (≈ 30.1 µg/mL)

Cc1c(C(=O)N2CCC(F)CC2)cnc2c1ccn2-c1ccc(C(N)=O)cc1 [MF-DH-380, 4-(5-(4-fluoropiperidine-1-carbonyl)-4-methyl-1H-pyrrolo[2,3-b]pyridin-1-yl)benzamide]
IC50 (15-PGDH/HPGD; read-out: hPGDH: Average IC50): < 100 nM | MLM + NADPH (% remaining at 45 min) [1]: 89% | solubility (Solubility at pH 7.4; [6]): 75 µM (≈ 28.5 µg/mL)

COc1ccccc1C(=O)Nc1ccc(C(=O)N2CCCCC2)cc1 [drawing 231]
solubility (Solubility at pH 7.4; [5]): 29 µM (≈ 9.81 µg/mL)

COc1ccc(-n2cnc3cc(C(=O)N4CCC(F)(F)CC4)cnc32)cc1 [drawing 191]
solubility (Solubility at pH 7.4; [4]): 140 µM (≈ 52.1 µg/mL)

COc1ccc(-n2cnc3cc(C(=O)N4CCC(F)CC4)ccc32)cc1 [drawing 222]
solubility (Solubility at pH 7.4; [4]): 160 µM (≈ 56.5 µg/mL)

O=C(c1ccc2c(cnn2-c2cccc(Cl)c2)c1)N1CCCCC1 [drawing 224]
solubility (Solubility at pH 7.4; [4]): 6.9 µM (≈ 2.34 µg/mL)

COc1ccc(-n2cnc3cc(C(=O)N4CCC(F)CC4)cnc32)cc1 [drawing 192]
solubility (Solubility at pH 7.4; [4]): 140 µM (≈ 49.6 µg/mL)

O=C(c1cnc2c(ccn2-c2cncc(-c3noc(=O)[nH]3)c2)c1)N1CCC(F)(F)CC1 [MF-DH-454, 3-(5-(5-(4,4-difluoropiperidine-1-carbonyl)-1H-pyrrolo[2,3-b]pyridin-1-yl)pyridin-3-yl)-1,2,4-oxadiazol-5(4H)-one]
IC50 (15-PGDH/HPGD; read-out: hPGDH: Average IC50): < 100 nM | MLM + NADPH (% remaining at 45 min) [1]: 92% | solubility (Solubility at pH 7.4; [6]): > 100 µM

O=C(c1ccc(COc2ccccc2Cl)cc1)N1CCCCC1 [drawing 230]
solubility (Solubility at pH 7.4; [5]): 38 µM (≈ 12.5 µg/mL)

COc1ccc(-n2c(C)nc3cc(C(=O)N4CCCCC4)cnc32)cc1 [MF-DH-205]
IC50 (15-PGDH/HPGD; read-out: hPGDH: Average IC50): < 100 nM | RLM + NADPH (% remaining at 45 min) [3]: 78%

Cc1ncc(-n2cc(Cl)c3cc(C(=O)N4CCC(F)CC4)cnc32)cn1 [MF-DH-169, (3-chloro-1-(2-methylpyrimidin-5-yl)-1H-pyrrolo[2,3-b]pyridin-5-yl)(4-fluoropiperidin-1-yl)methanone]
IC50 (15-PGDH/HPGD; read-out: hPGDH: Average IC50): < 100 nM | HLM + NADPH (% remaining at 45 min) [2]: 71% | RLM + NADPH (% remaining at 45 min) [3]: 69%

COc1ccc(-n2ccc3c(C)c(C(=O)N4CCCCC4)cnc32)cc1 [MF-DH-287]
IC50 (15-PGDH/HPGD; read-out: hPGDH: Average IC50): < 100 nM | RLM + NADPH (% remaining at 45 min) [3]: 44%

O=C(c1cnc2c(-c3cccc(Cl)c3)cnn2c1)N1CCCCC1 [drawing 220]
solubility (Solubility at pH 7.4; [4]): < 5 µM

COc1ccc(-n2c(C3CC3)nc3cc(C(=O)N4CCCCC4)ccc32)cc1 [drawing 218]
solubility (Solubility at pH 7.4; [4]): 45 µM (≈ 16.9 µg/mL)

O=C(c1cnc2c(c1)ncn2-c1ccc(F)cc1)N1CCC(F)CC1 [MF-DH-214]
IC50 (15-PGDH/HPGD; read-out: hPGDH: Average IC50): 100 to 1000 nM | RLM + NADPH (% remaining at 45 min) [3]: 60%

COc1ccc(-n2nnc3cc(C(=O)N4CCC(F)CC4)ccc32)cc1 [MF-DH-242, (4-fluoropiperidin-1-yl)(1-(4-methoxyphenyl)-1H-benzo[d][1,2,3]triazol-5-yl)methanone]
IC50 (15-PGDH/HPGD; read-out: hPGDH: Average IC50): < 100 nM | RLM + NADPH (% remaining at 45 min) [3]: 51%
